These are literature values, as cited in patent publication US9107941B2, “Methods and compositions for reducing L-pipecolic acid effects in animals” (SarTec Corporation, priority 2006, dated 2015).

Structures are written as SMILES.

One series has as its system chicks. Conditions: ICV injection.

On to `O=C(O)[C@@H]1CCCCN1` [L-PIP, L-pipecolic acid], for which, in the series on chicks, the food intake result is “inhibited food intake” and the sleep-like behavior result is reported as “induced sleep-like behavior”. In addition, in the series on neuronal cells, the “apoptosis in neuronal cells” value is “induce apoptosis”.
